Measurements: patent US20240368191A1, “HETEROCYCLIC COMPOUNDS AND USES THEREOF” (Kumquat Biosciences Inc., priority 2021, published 2024)

System: not listed separately
Test: Metabolic (microsomal) stability assay
Details: pooled liver microsomes, pH 7.4

| SMILES | half-life at 0.5 μM |
| --- | --- |
| N#Cc1c(N)sc2c(F)ccc(-c3c(Cl)cc4c(N5CCC6CN(C(=O)Nc7ncccn7)CCC65)nc(OC[C@@]56CCCN5C[C@H](F)C6)nc4c3F)c12 (single isomer, unassigned) [Compound A271] | > 10 min |
| C#Cc1c(F)ccc2cc(O)cc(-c3ncc4c(N5CCOC6(CN(C(=O)n7cncn7)C6)C5)nc(OC[C@@]56CCCN5C[C@H](F)C6)nc4c3F)c12 [Compound A106, (8-(7-(8-ethynyl-7-fluoro-3-hydroxynaphthalen-1-yl)-8-fluoro-2-(((2R,7aS)-2-fluoro-tetrahydro-1H-pyrrolizin-7a(5H)-yl)methoxy)pyrido-[4,3-d]pyrimidin-4-yl)-5-oxa-2,8-diazaspiro[3.5]nonan-2-yl)(1H-1,2,4-triazol-1-yl)-methanone] | > 10 min |
| N#Cc1c(N)sc2c(F)ccc(-c3c(Cl)cc4c(N5CCCC6(CN(C(=O)n7cncn7)C6)C5)nc(OC[C@@]56CCCN5C[C@H](F)C6)nc4c3F)c12 [Compound A129, 4-(4-(2-(1H-1,2,4-triazole-1-carbonyl)-2,6-diazaspiro[3.5]-nonan-6-yl)-6-chloro-8-fluoro-2-(((2R,7aS)-2-fluorotetrahydro-1H-pyrrolizin-7a(5H)-yl)meth-oxy)quinazolin-7-yl)-2-amino-7-fluorobenzo[b]thiophene-3-carbonitrile] | > 10 min |
| N#Cc1c(N)sc2c(F)ccc(-c3c(Cl)cc4c(N5CCOC6(CN(C(=O)n7cncn7)C6)C5)nc(OC[C@@]56CCCN5C[C@H](F)C6)nc4c3F)c12 [Compound A132, 4-(4-(2-(1H-1,2,4-triazole-1-carbonyl)-5-oxa-2,8-diaza-spiro[3.5]nonan-8-yl)-6-chloro-8-fluoro-2-(((2R,7aS)-2-fluorotetrahydro-1H-pyrrolizin-7a(5H)-yl)methoxy)quinazolin-7-yl)-2-amino-7-fluorobenzo-[b]thiophene-3-carbonitrile] | > 10 min |
| Nc1nc2c(-c3c(Cl)cc4c(N5CCCC6(CN(C(=O)n7cncn7)C6)C5)nc(OC[C@@]56CCCN5C[C@H](F)C6)nc4c3F)ccc(F)c2s1 [Compound A136, (6-(7-(2-amino-7-fluorobenzo-[d]thiazol-4-yl)-6-chloro-8-fluoro-2-(((2R,7aS)-2-fluoro-tetrahydro-1H-pyrrolizin-7a(5H)-yl)methoxy)quinazolin-4-yl)-2,6-diazaspiro[3.5]nonan-2-yl)(1H-1,2,4-triazol-1-yl)-methanone] | > 10 min |
| N#Cc1c(N)sc2c(F)ccc(-c3c(Cl)cc4c(N5CCN(CC6CC6)C6(CN(C(=O)n7cncn7)C6)C5)nc(OC[C@@]56CCCN5C[C@H](F)C6)nc4c3F)c12 [Compound A139, 2-amino-4-(6-chloro-4-(5-(cyclopropylmethyl)-2-(1H-1,2,4-triazole-1-carbonyl)-2,5,8-triazaspiro[3.5]nonan-8-yl)-8-fluoro-2-(((2R,7aS)-2-fluoro-tetrahydro-1H-pyrrolizin-7a(5H)-yl)methoxy)quinazolin-7-yl)-7-fluorobenzo[b]thiophene-3-carbonitrile] | > 10 min |

Biological target: T1, KRAS G12D 1-169 (His-tagged, GDP-loaded) (Homo sapiens, UniProt P01116, G12D)
T1 construct: His -tagged GDP-loaded G12D 1-169; made in house; host or cells: E. coli, e.g. BL21 (DE3)
T1 sequence (P01116 1-169 isoform P01116-2 G12D): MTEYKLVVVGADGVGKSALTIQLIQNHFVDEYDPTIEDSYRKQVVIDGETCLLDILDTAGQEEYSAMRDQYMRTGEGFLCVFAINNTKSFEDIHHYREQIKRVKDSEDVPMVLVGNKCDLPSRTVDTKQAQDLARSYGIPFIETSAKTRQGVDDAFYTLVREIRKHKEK
Test: Covalent modification of KRAS protein by intact-protein LC-MS
Type: binding
Details: comparable or same conditions as K-Ras G12S
Procedure: Test compounds are prepared as 10 mM stock solutions in DMSO (Fisher cat #BP231-100). KRAS protein (His -tagged GDP-loaded wildtype 1-169, His -tagged GDP-loaded G12S 1-169 or His -tagged GDP-loaded G12D 1-169) is diluted to ˜2 μM in appropriate buffer (e.g., a Hepes buffer at physiological conditions). For testing KRAS modification, compounds are diluted to 50× final test concentration in DMSO in 96-well storage plates. 2 μl of the diluted 50× compounds are added to appropriate wells in the PCR plate (Fisher cat #AB-0800). ˜49 μl of the stock protein solution is added to each well of the 96-well PCR plate. Reactions are mixed carefully. The plate is sealed well with aluminum plate seal, and stored in drawer at room temperature for 24 hrs. 5 μl of 2% formic acid (Fisher cat #A117-50) in MilliQ H2O is then added to each well followed by mixing with a pipette. The plate is then resealed with aluminum seal and stored until mass spectrometry analysis.
The extent of covalent modification of KRAS proteins was determined by liquid chromatography electrospray mass spectrometry analysis of the intact proteins on a Thermo Q-Exactive Plus mass spectrometer. 20 μl of sample was injected onto a bioZen 3.6 μm Intact C4 column (Phenomenex cat #00B-4767-AN) placed in a column oven set to 40° C. and separated using a suitable LC gradient from ˜20% to ˜60% solvent B. Solvent A was 0.1% formic acid and solvent B was 0.1% formic acid in acetonitrile. HESI source settings were set to 40, 5 and 1 for the sheath, auxiliary and sweep gas flow, respectively. The spray voltage was 4 kV, and the capillary temperature was 320° C. S-lens RF level was 50 and auxiliary gas heater temperature was set to 200° C. The mass spectrometry was acquired using a scan range from 650 to 1750 m/z using positive polarity at a mass resolution of 70,000, AGC target of 1e6 ions and maximum injection time of 250 ms. The recorded protein mass spectrum was deconvoluted from the raw data file using Protein Deconvolution v4.0 (Thermo). The protein mass and adduct masses were exported with their peak intensities. The peak intensities for the unmodified and modified protein were used to calculate the percent covalent modification of the KRAS protein based on the following equation: % KRAS protein modification=((KRAS−compound)/(KRAS)+(KRAS−Compound))*100.

| SMILES | covalent labeling of K-Ras G12D |
| --- | --- |
| Nc1nc2c(-c3c(Cl)cc4c(N5CCCCC6(CN(C(=O)n7cncn7)C6)C5)nc(OC[C@@]56CCCN5C[C@H](F)C6)nc4c3F)ccc(F)c2s1 [Compound A265, (6-(7-(2-amino-7-fluorobenzo-[d]thiazol-4-yl)-6-chloro-8-fluoro-2-(((2R,7aS)-2-fluoro-tetrahydro-1H-pyrrolizin-7a(5H)-yl)methoxy)quinazolin-4-yl)-2,6-diazaspiro[3.6]decan-2-yl)(1H-1,2,4-triazol-1-yl)-methanone] | essentially no detectable labeling |
| N#Cc1c(N)sc2c(F)ccc(-c3c(Cl)cc4c(N5CCCC6(CCN(C(=O)n7cncn7)C6)C5)nc(OC[C@@]56CCCN5C[C@H](F)C6)nc4c3F)c12 (stereo partly drawn) [Compound A269, 4-(4-(2-(1H-1,2,4-triazole-1-carbonyl)-2,7-diazaspiro[4.5]-decan-7-yl)-6-chloro-8-fluoro-2-(((2R,7aS)-2-fluorotetrahydro-1H-pyrrolizin-7a(5H)-yl)meth-oxy)quinazolin-7-yl)-2-amino-7-fluorobenzo[b]thiophene-3-carbonitrile] | essentially no detectable labeling |
| C[C@H](Oc1nc(N2CCOC3(CN(C(=O)n4cncn4)C3)C2)c2cc(Cl)c(-c3ccc(F)c4sc(N)c(C#N)c34)c(F)c2n1)[C@@H]1CCCN1C [Compound A275, 4-(4-(2-(1H-1,2,4-triazole-1-carbonyl)-5-oxa-2,8-diazaspiro-[3.5]nonan-8-yl)-6-chloro-8-fluoro-2-((S)-1-((S)-1-methyl-pyrrolidin-2-yl)ethoxy)quin-azolin-7-yl)-2-amino-7-fluoro-benzo[b]thiophene-3-carbonitrile] | essentially no detectable labeling |
| Nc1nc2c(-c3c(Cl)cc4c(N5CC6(CCN(C(=O)n7cncn7)C6)C5)nc(OC[C@@]56CCCN5C[C@H](F)C6)nc4c3F)ccc(F)c2s1 [Compound A279, (2-(7-(2-amino-7-fluorobenzo-[d]thiazol-4-yl)-6-chloro-8-fluoro-2-(((2R,7aS)-2-fluoro-tetrahydro-1H-pyrrolizin-7a(5H)-yl)methoxy)quinazolin-4-yl)-2,6-diazaspiro[3.4]octan-6-yl)(1H-1,2,4-triazol-1-yl)-methanone] | essentially no detectable labeling |
| Cc1nc(C)n(C(=O)N2CC3(C2)CN(c2nc(OC[C@@]45CCCN4C[C@H](F)C5)nc4c(F)c(-c5ccc(F)c6sc(N)c(C#N)c56)c(Cl)cc24)CCO3)n1 [Compound A283, 2-amino-4-(6-chloro-4-(2-(3,5-dimethyl-1H-1,2,4-triazole-1-carbonyl)-5-oxa-2,8-diazaspiro-[3.5]nonan-8-yl)-8-fluoro-2-(((2R,7aS)-2-fluorotetrahydro-1H-pyrrolizin-7a(5H)-yl)meth-oxy)quinazolin-7-yl)-7-fluoro-benzo[b]thiophene-3-carbonitrile] | essentially no detectable labeling |
| N#Cc1c(N)sc2c(F)ccc(-c3c(Cl)cc4c(N5CC6(CCCCN(C(=O)n7cncn7)C6)C5)nc(OC[C@@]56CCCN5C[C@H](F)C6)nc4c3F)c12 [Compound A285, 4-(4-(6-(1H-1,2,4-triazole-1-carbonyl)-2,6-diazaspiro[3.6]-decan-2-yl)-6-chloro-8-fluoro-2-(((2R,7aS)-2-fluorotetra-hydro-1H-pyrrolizin-7a(5H)-yl)methoxy)quinazolin-7-yl)-2-amino-7-fluorobenzo[b]thio-phene-3-carbonitrile] | essentially no detectable labeling |
| C#Cc1c(F)ccc2cc(O)cc(-c3ncc4c(N5CCOCC6(CN(C(=O)n7cnc(C)n7)C6)C5)nc(OC[C@@]56CCCN5C[C@H](F)C6)nc4c3F)c12 [Compound A298, (9-(7-(8-ethynyl-7-fluoro-3-hydroxynaphthalen-1-yl)-8-fluoro-2-(((2R,7aS)-2-fluoro-tetrahydro-1H-pyrrolizin-7a(5H)-yl)methoxy)pyrido[4,3-d]pyrimidin-4-yl)-6-oxa-2,9-diazaspiro[3.6]decan-2-yl)(3-methyl-1H-1,2,4-triazol-1-yl)-methanone] | essentially no detectable labeling |
| Cc1ncn(C(=O)N2CCCC(Oc3nc(OC[C@@]45CCCN4C[C@H](F)C5)nc4c(F)c(-c5ccc(F)c6sc(N)c(C#N)c56)c(Cl)cc34)C2)n1 (stereo partly drawn) [Compound A302, 2-amino-4-(6-chloro-8-fluoro-2-(((2R,7aS)-2-fluorotetrahydro-1H-pyrrolizin-7a(5H)-yl)meth-oxy)-4-((1-(3-methyl-1H-1,2,4-triazole-1-carbonyl)piperidin-3-yl)oxy)quinazolin-7-yl)-7-fluorobenzo[b]thiophene-3-carbonitrile] | essentially no detectable labeling |
| Cc1ncn(C(=O)N2CC3CCN(c4nc(OC[C@@]56CCCN5C[C@H](F)C6)nc5c(F)c(-c6ccc(F)c7sc(N)c(C#N)c67)c(Cl)cc45)C3C2)n1 (stereo partly drawn) [Compound A304, 2-amino-4-(6-chloro-8-fluoro-2-(((2R,7aS)-2-fluorotetrahydro-1H-pyrrolizin-7a(5H)-yl)meth-oxy)-4-(5-(3-methyl-1H-1,2,4-triazole-1-carbonyl)hexahydro-pyrrolo[3,4-b]pyrrol-1(2H)-yl)quinazolin-7-yl)-7-fluoro-benzo[b]thiophene-3-carbonitrile] | essentially no detectable labeling |
